Each compound was assayed against T1, c-Met (Homo sapiens, UniProt P08581) (assay: Cell based ELISA assay for HGF stimulated c-Met phosphorylation in S114 cells). Details: read-out: c-Met Cell ELISA IC-50.
Set-up: expressed in transfected cells; host or cells: S114 (murine NIH 3T3 derived)
Procedure: A cell based ELISA assay was developed to evaluate the ability of compounds to inhibit HGF stimulated c-Met phosphorylation in cells.
Target sequence in this assay (P08581 25-1390): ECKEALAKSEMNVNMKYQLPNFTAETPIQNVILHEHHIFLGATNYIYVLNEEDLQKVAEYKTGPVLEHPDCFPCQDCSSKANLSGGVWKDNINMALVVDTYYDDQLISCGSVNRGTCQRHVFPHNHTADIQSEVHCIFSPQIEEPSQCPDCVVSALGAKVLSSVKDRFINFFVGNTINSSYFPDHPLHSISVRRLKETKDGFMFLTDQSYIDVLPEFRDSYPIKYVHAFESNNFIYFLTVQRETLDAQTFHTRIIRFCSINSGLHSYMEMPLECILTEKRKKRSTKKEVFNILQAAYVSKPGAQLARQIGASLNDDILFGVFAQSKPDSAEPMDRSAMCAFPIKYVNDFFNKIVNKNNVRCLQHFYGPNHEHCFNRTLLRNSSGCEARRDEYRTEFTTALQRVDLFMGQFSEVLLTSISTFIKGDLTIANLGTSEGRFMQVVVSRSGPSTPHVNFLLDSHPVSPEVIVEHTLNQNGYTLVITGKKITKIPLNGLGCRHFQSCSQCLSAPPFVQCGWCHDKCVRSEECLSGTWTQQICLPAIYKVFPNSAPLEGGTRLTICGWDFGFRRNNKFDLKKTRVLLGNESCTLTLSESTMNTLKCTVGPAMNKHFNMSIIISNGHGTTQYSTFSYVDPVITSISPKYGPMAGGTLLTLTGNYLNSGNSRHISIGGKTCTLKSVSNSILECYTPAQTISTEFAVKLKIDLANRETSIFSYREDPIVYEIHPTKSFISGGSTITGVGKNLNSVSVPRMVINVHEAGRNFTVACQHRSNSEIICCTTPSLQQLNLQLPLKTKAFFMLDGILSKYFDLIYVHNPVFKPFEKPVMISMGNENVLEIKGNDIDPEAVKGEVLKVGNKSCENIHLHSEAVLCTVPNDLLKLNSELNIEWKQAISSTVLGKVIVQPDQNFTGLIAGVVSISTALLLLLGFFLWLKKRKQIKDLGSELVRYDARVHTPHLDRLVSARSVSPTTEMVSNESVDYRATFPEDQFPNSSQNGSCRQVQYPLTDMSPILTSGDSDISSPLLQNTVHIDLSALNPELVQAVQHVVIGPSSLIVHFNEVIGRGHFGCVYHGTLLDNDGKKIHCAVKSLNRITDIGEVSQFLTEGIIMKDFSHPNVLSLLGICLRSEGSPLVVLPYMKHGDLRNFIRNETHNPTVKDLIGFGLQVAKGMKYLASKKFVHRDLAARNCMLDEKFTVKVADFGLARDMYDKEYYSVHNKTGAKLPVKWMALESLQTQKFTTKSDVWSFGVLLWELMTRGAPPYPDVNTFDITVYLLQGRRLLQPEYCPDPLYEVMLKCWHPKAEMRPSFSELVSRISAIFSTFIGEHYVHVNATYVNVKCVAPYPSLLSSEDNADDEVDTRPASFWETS
S114 cells were seeded to a 96 well tissue culture treated dish at a concentration of 5×10^4 per well. After a 16-20 hour incubation, culture medium was removed and replaced with serum free medium supplemented with 0.5% BSA. Test compound was then added and incubated with the cells for 60 minutes, followed by the addition of 1 μl HGF at […] for 15 minutes. […] Following another 1 hour incubation at room temperature the plates were washed three times with Delfia wash buffer (Perkin Elmer). After the final wash, […] of Delfia enhancer solution (Perkin Elmer) was added and allowed to incubate for 60 minutes. Plates were read on an LJL Analyst instrument (Molecular Devices; Sunnyvale, Calif.) with filter settings of 360 excitation, 620 emission, and 410 dichroic. IC50 values were calculated using Graphpad Prism software (Graphpad Software; San Diego, Calif.).

SMILES | IC50 [µM]
c1cnc2ccc(Cc3nnc4ccc(-c5ccc6[nH]ccc6c5)nn34)cc2c1 [Example 84, 6-[6-(1H-Indol-5-yl)-[1,2,4]triazolo[4,3-b]pyridazin-3-ylmethyl]-quinoline] | 0.0009
O=C(c1ccc(-c2ccc3nnc(Cc4ccc5ncccc5c4)n3n2)s1)N1CCS(=O)(=O)CC1 [Example 54, (1,1-Dioxo-1λ6thiomorpholin-4-yl)-[5-(3-quinolin-6-ylmethyl-[1,2,4]triazolo[4,3-b]pyridazin-6-yl)-thiophen-2-yl]-methanone] | 0.006

More lines, now with the values ahead:

IC50 [µM] | SMILES
0.12 | N#Cc1cc(-c2ccc3nnc(C(F)(F)c4ccc5ncccc5c4)n3n2)ccn1 [Example 101, 4-[3-(Difluoro-quinolin-6-yl-methyl)-[1,2,4]triazolo[4,3-b]pyridazin-6-yl]-pyridine-2-carbonitrile]
0.06 | OCCCn1cc(-c2ccc3nnc(Cc4ccc5ncccc5c4)n3n2)cn1 [Example 75, 3-[4(3-Quinolin-6-ylmethyl-[1,2,4]triazolo[4,3-b]pyridazin-6-yl)-pyrazol-1-yl]-propan-1-ol]
0.26 | Cn1ccc2cc(-c3ccc4nnc(Cc5ccc6ncccc6c5)n4n3)ccc21 [Example 85, 6-[6-(1-Methyl-1H-indol-5-yl)-[1,2,4]triazolo[4,3-b]pyridazin-3-ylmethyl]-quinoline]

The compounds below were run against T1, c-Met (assay: Delfia autophosphorylation kinase assay on the c-Met). Details: His6 tagged cytoplasmic domain of c-Met, 1 μM ATP; read-out: cMet Delfia autophos IC-50.
Format: biochemical
Set-up: The purified His6 tagged cytoplasmic domain of c-Met was diluted to a concentration of 500 ng/ml; host or cells: Sf9 insect cells (baculovirus, pFastBacHTa)
Procedure: A DELFIA time resolved fluorescence assay was developed for screening of compounds that decreases the autophosphorylation thus the kinase activity of c-Met. The DELFIA assay is non-radioactive. The autophosphorylation of the c-Met is measured by an anti-phosphotyrosine antibody coupled to an Europium tag.
A major advantage of this format is that it allowed for the development of an autophosphorylation assay using Ni-chelate plates which bind the hexa-his tag on the recombinant Met kinase. The autophosphorylation assay allows one to use a known substrate, Met kinase itself, for the phosphorylation.
The assay procedure for screening is as follows. The purified His6 tagged cytoplasmic domain of c-Met was diluted to a concentration of 500 ng/ml in enzyme dilution buffer (50 mM Tris-HCl, pH8.0, 0.1% BSA) and dispensed to assay plates at a volume of 50 μl per well. Black opaque HisGrab Nickel coated 96 well plates (Pierce, Rockford, Ill.) were selected for use. Next, 2.5 μl of compound in 40% DMSO was added to test wells, 2.5 μl of 40% DMSO only was added to the negative control wells. The autophosphorylation reaction was initiated upon the addition of 50 μl of reaction buffer, 50 mM Tris-HCl, pH 8.0, 10 mM MgCl2, 0.1 mM Na3VO4, 1 mM DTT, 1 μM ATP. Plates were incubated at room temperature for 1 hour followed by 2 washes with 200 μl/well of PBS. Europium conjugated anti-phosphotyrosine antibody, Eu-PY20 from Perkin Elmer was diluted to 50 ng/ml in Delfia AB buffer (Perkin Elmer, Boston, Mass.), added to the 96 well assay plates at a volume of 100 μl/well, and incubated at room temperature for 2 hours. Assay plates were then washed 4 times each with 200 μl/well of Delfia wash buffer (Perkin Elmer). After the final wash 150 μl of Delfia Enhancement solution (Perkin Elmer) was added to each well of the assay plate and incubated at room temperature for 1 hour. Plates were read on an LJL Analyst instrument (Molecular Devices; Sunnyvale, Calif.) with filter settings of 360 excitation, 620 emission, and 410 dichroic. IC50 values were calculated using Graphpad Prism software (Graphpad Software; San Diego, Calif.).
Target sequence in this assay (P08581 956-1390 limits assumed): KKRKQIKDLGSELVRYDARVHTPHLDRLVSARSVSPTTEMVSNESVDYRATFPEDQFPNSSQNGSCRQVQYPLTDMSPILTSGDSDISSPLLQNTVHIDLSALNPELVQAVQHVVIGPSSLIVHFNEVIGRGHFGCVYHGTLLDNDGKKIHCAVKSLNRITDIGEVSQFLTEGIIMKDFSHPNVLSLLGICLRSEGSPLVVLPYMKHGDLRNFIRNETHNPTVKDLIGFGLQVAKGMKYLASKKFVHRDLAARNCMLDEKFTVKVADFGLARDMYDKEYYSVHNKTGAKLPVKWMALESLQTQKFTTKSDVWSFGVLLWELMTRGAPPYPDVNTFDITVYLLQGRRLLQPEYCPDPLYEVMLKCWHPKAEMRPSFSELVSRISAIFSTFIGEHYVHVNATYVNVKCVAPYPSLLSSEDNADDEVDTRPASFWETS

SMILES | IC50 [µM]
Clc1cc(Cc2nnc3ccc(-c4cccnc4)nn23)ccn1 [Example 14, 3-(2-Chloro-pyridin-4-ylmethyl)-6-pyridin-3-yl-[1,2,4]triazolo[4,3-b]pyridazine] | > 10
CCNC(=O)Nc1ccc(Cc2nnc3ccc(-c4cccs4)nn23)cc1 [Example 30, 1-Ethyl-3-[4-(6-thiophen-2-yl-[1,2,4]triazolo[4,3-b]pyridazin-3-ylmethyl)-phenyl]-urea] | 0.57
O=[N+]([O-])c1ccc(Cc2nnc3ccc(-c4cccs4)nn23)cc1 [Example 27, 3-(4-Nitro-benzyl)-6-thiophen-2-yl-[1,2,4]triazolo[4,3-b]pyridazine] | 8.21
Clc1ccc2cc(Cc3nnc4ccc(-c5cccnc5)nn34)ccc2n1 [Example 67, 2-Chloro-6-(6-pyridin-3-yl-[1,2,4]triazolo[4,3-b]pyridazin-3-ylmethyl)-quinoline] | 0.9
c1cncc(-c2ccc3nnc(Cc4cccc5ncccc45)n3n2)c1 [Example 91, 5-(6-Pyridin-3-yl-[1,2,4]triazolo[4,3-b]pyridazin-3-ylmethyl)-quinoline] | 1.05
c1ccc(Cc2nnc3ccc(-c4cccs4)nn23)cc1 [Example 24, 3-Benzyl-6-thiophen-2-yl-[1,2,4]triazolo[4,3-b]pyridazine] | 1.78
Nc1ccc(Cc2nnc3ccc(-c4cccs4)nn23)cc1 [Example 28, 4(6-Thiophen-2-yl-[1,2,4]triazolo[4,3-b]pyridazin-3-ylmethyl)-phenylamine] | 1.9
O=c1ccc(Cc2nnc3ccc(-c4cccs4)nn23)c[nH]1 [Example 32, 5-(6-Thiophen-2-yl-[1,2,4]triazolo[4,3-b]pyridazin-3-ylmethyl)-1H-pyridin-2-one] | 0.305
Fc1ccc(Cc2nnc3ccc(-c4cccs4)nn23)cc1 [Example 26, 3-(4-Fluoro-benzyl)-6-thiophen-2-yl-[1,2,4]triazolo[4,3-b]pyridazine] | 0.413
Oc1ccc(Cc2nnc3ccc(-n4cccn4)nn23)cc1 [Example 46, 4-(6-Pyrazol-1-yl-[1,2,4]triazolo[4,3-b]pyridazin-3-ylmethyl)-phenol] | 0.227
c1cc2c(cc1Cc1nnc3ccc(-c4ccc(N5CCOCC5)nc4)nn13)CCO2 [Example 8, 3-(2,3-Dihydro-benzofuran-5-ylmethyl)-6-(6-morpholin-4-yl-pyridin-3-yl)-[1,2,4]triazolo[4,3-b]pyridazine] | 0.243
O=C(c1cncc(-c2ccc3nnc(Cc4ccc5ncccc5c4)n3n2)c1)N1CCOCC1 [Example 10, Morpholin-4-yl-[5-(3-quinolin-6-ylmethyl-[1,2,4]triazolo[4,3-b]pyridazin-6-yl)-pyridin-3-yl]-methanone] | 0.217
Cn1cc(-c2ccc3nnc(Cc4ccc5c(ccc[n+]5[O-])c4)n3n2)cn1 [Example 63, 6-[6-(1-Methyl-1H-pyrazol-4-yl)-[1,2,4]triazolo[4,3-b]pyridazin-3-ylmethyl]-quinoline 1-oxide] | 0.6
c1csc(-c2ccc3nnc(Cc4ccc5sccc5c4)n3n2)c1 [Example 36, 3-Benzo[b]thiophen-5-ylmethyl-6-thiophen-2-yl-[1,2,4]triazolo[4,3-b]pyridazine] | 2.7
[O-][n+]1ccc(Cc2nnc3ccc(-c4cccs4)nn23)cc1 [Example 34, 3-(1-Oxy-pyridin-4-ylmethyl)-6-thiophen-2-yl-[1,2,4]triazolo[4,3-b]pyridazine] | 1.19
c1cnc2ccc(Cc3nnc4ccc(-c5ccc6nn[nH]c6c5)nn34)cc2c1 [Example 78, 6-[6-(3H-Benzotriazol-5-yl)-[1,2,4]triazolo[4,3-b]pyridazin-3-ylmethyl]-quinoline] | 0.32
c1cc2c(cc1Cc1nnc3ccc(-c4ccc(CN5CCOCC5)o4)nn13)CCO2 [Example 40, 3-(2,3-Dihydro-benzofuran-5-ylmethyl)-6-(5-morpholin-4-ylmethyl-furan-2-yl)-[1,2,4]triazolo[4,3-b]pyridazine] | 1.08

Continued, values first:

IC50 [µM] | SMILES
0.001 | N#Cc1cc(-c2ccc3nnc(C(F)(F)c4ccc5ncccc5c4)n3n2)ccn1 [Example 101, 4-[3-(Difluoro-quinolin-6-yl-methyl)-[1,2,4]triazolo[4,3-b]pyridazin-6-yl]-pyridine-2-carbonitrile]
0.0008 | OCCCn1cc(-c2ccc3nnc(Cc4ccc5ncccc5c4)n3n2)cn1 [Example 75, 3-[4(3-Quinolin-6-ylmethyl-[1,2,4]triazolo[4,3-b]pyridazin-6-yl)-pyrazol-1-yl]-propan-1-ol]
0.053 | Cn1ccc2cc(-c3ccc4nnc(Cc5ccc6ncccc6c5)n4n3)ccc21 [Example 85, 6-[6-(1-Methyl-1H-indol-5-yl)-[1,2,4]triazolo[4,3-b]pyridazin-3-ylmethyl]-quinoline]
0.014 | N#Cc1cncc(-c2ccc3nnc(Cc4ccc5ncccc5c4)n3n2)c1 [Example 83, 5-(3-Quinolin-6-ylmethyl-[1,2,4]triazolo[4,3-b]pyridazin-6-yl)-nicotinonitrile]
0.023 | Nc1nc2ccc(Cc3nnc4ccc(-c5cccs5)nn34)cc2o1 [Example 21, 6-(6-Thiophen-2-yl-[1,2,4]triazolo[4,3-b]pyridazin-3-ylmethyl)-benzooxazol-2-ylamine]
0.056 | c1cncc(-c2ccc3nnc(Cc4ccc5ncnn5c4)n3n2)c1 [Example 12, 6-Pyridin-3-yl-3-[1,2,4]triazolo[1,5-a]pyridin-6-ylmethyl-[1,2,4]triazolo[4,3-b]pyridazine]
0.086 | CC(=O)Nc1ccc(Cc2nnc3ccc(-c4cccs4)nn23)cc1 [Example 29, N-[4(6-Thiophen-2-yl-[1,2,4]triazolo[4,3-b]pyridazin-3-ylmethyl)-phenyl]-acetamide]
0.056 | COc1cnccc1-c1ccc2nnc(Cc3ccc4c(c3)CCO4)n2n1 [Example 41, 3-(2,3-Dihydro-benzofuran-5-ylmethyl)-6-(3-methoxy-pyridin-4-yl)-[1,2,4]triazolo[4,3-b]pyridazine]
0.07 | Oc1ccc(Cc2nnc3ccc(-n4ccnc4)nn23)cc1 [Example 45, 4-(6-Imidazol-1-yl-[1,2,4]triazolo[4,3-b]pyridazin-3-ylmethyl)-phenol]
0.0003 | FC(F)(c1ccc2ncccc2c1)c1nnc2ccc(-c3cccs3)nn12 [Example 57, 6-[Difluoro-(6-thiophen-2-yl-[1,2,4]triazolo[4,3-b]pyridazin-3-yl)-methyl]-quinoline]
0.017 | Cc1nc2ccc(Cc3nnc4ccc(-c5cnn(C)c5)nn34)cc2s1 [Example 82, 3-(2-Methyl-benzothiazol-6-ylmethyl)-6-(1-methyl-1H-pyrazol-4-yl)-[1,2,4]triazolo[4,3-b]pyridazine]
0.172 | c1ccc(-c2ccc3nnc(Cc4ccc5c(c4)CCO5)n3n2)nc1 [Example 19, 3-(2,3-Dihydro-benzofuran-5-ylmethyl)-6-pyridin-2-yl-[1,2,4]triazolo[4,3-b]pyridazine]
